Measured values reported in PubChem BioAssay AID1963978 (Molecular Pharmacology Branch, DTP, NCI, 2024).

System: 616215-338-R-J1-PDC spheroids with HUVEC/MSC, viability
Test: Anticancer human tumor 616215-338-R-J1-PDC patient-derived colon adenocarcinoma cell line growth inhibition [PI3K]
Conditions: for viability, T/C: stronger effect = lower value
Method in brief: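 Agents were dosed from a top concentration near clinical Cmax (otherwise 10 microM) in half-log decrements, alone or combined with PI3K inhibitors. The spheroids contain tumor cells plus endothelial (HUVEC) and MSC stroma; viability is measured.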

[1] = curve of first compound, second compound 0.0316 µM
[2] = curve of first compound, second compound 0.1 µM
[3] = curve of first compound, second compound 0.316 µM
[4] = curve of first compound, second compound 1 µM
[5] = curve of first compound, second compound 3.16 µM
[6] = curve of first compound, second compound 10 µM
[7] = second compound 0.0316 µM, first compound 0.0316 µM
[8] = second compound 0.0316 µM, first compound 0.1 µM
[9] = second compound 0.0316 µM, first compound 0.316 µM
[10] = second compound 0.0316 µM, first compound 1 µM
[11] = second compound 0.0316 µM, first compound 3.16 µM
[12] = second compound 0.0316 µM, first compound 10 µM
[13] = second compound 0.1 µM, first compound 0.0316 µM
[14] = second compound 0.1 µM, first compound 0.1 µM
[15] = second compound 0.1 µM, first compound 0.316 µM
[16] = second compound 0.1 µM, first compound 1 µM
[17] = second compound 0.1 µM, first compound 3.16 µM
[18] = second compound 0.1 µM, first compound 10 µM
[19] = second compound 0.316 µM, first compound 0.0316 µM
[20] = second compound 0.316 µM, first compound 0.1 µM
[21] = second compound 0.316 µM, first compound 0.316 µM
[22] = second compound 0.316 µM, first compound 1 µM
[23] = second compound 0.316 µM, first compound 3.16 µM
[24] = second compound 0.316 µM, first compound 10 µM
[25] = second compound 1 µM, first compound 0.0316 µM
[26] = second compound 1 µM, first compound 0.1 µM
[27] = second compound 1 µM, first compound 0.316 µM
[28] = second compound 1 µM, first compound 1 µM
[29] = second compound 1 µM, first compound 3.16 µM
[30] = second compound 1 µM, first compound 10 µM
[31] = second compound 3.16 µM, first compound 0.0316 µM
[32] = second compound 3.16 µM, first compound 0.1 µM
[33] = second compound 3.16 µM, first compound 0.316 µM
[34] = second compound 3.16 µM, first compound 1 µM
[35] = second compound 3.16 µM, first compound 3.16 µM
[36] = second compound 3.16 µM, first compound 10 µM
[37] = second compound 10 µM, first compound 0.0316 µM
[38] = second compound 10 µM, first compound 0.1 µM
[39] = second compound 10 µM, first compound 0.316 µM
[40] = second compound 10 µM, first compound 1 µM
[41] = second compound 10 µM, first compound 3.16 µM
[42] = second compound 10 µM, first compound 10 µM
[43] = curve of first compound, second compound 0.00316 µM
[44] = curve of first compound, second compound 0.01 µM
[45] = second compound 0.00316 µM, first compound 0.00316 µM
[46] = second compound 0.00316 µM, first compound 0.01 µM
[47] = second compound 0.00316 µM, first compound 0.0316 µM
[48] = second compound 0.00316 µM, first compound 0.1 µM
[49] = second compound 0.01 µM, first compound 0.00316 µM
[50] = second compound 0.01 µM, first compound 0.01 µM
[51] = second compound 0.01 µM, first compound 0.0316 µM
[52] = second compound 0.01 µM, first compound 0.1 µM
[53] = second compound 0.0316 µM, first compound 0.00316 µM
[54] = second compound 0.0316 µM, first compound 0.01 µM
[55] = second compound 0.1 µM, first compound 0.00316 µM
[56] = second compound 0.1 µM, first compound 0.01 µM
[57] = second compound 0.316 µM, first compound 0.00316 µM
[58] = second compound 0.316 µM, first compound 0.01 µM
[59] = second compound 1 µM, first compound 0.00316 µM
[60] = second compound 1 µM, first compound 0.01 µM
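Note: spheroids exposed to agents for seven days before the viability read.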

Cn1ncc(Cl)c1-c1cc(C(=O)NC(CN)Cc2cccc(F)c2)sc1Cl (stereo not given) + Cc1nc(NC(=O)N2CCCC2C(N)=O)sc1-c1ccnc(C(C)(C)C(F)(F)F)c1
IC50 [1]: 6.95 µM | IC50 [2]: 6.73 µM | IC50 [3]: 6.48 µM | IC50 [4]: 9.17 µM | IC50 [5]: 5.85 µM | IC50 [6]: 4.01 µM | viability, T/C [7]: 96% | viability, T/C [8]: 93.5% | viability, T/C [9]: 102% | viability, T/C [10]: 91.5% | viability, T/C [11]: 82.5% | viability, T/C [12]: 35.2% | viability, T/C [13]: 102% | viability, T/C [14]: 95.8% | viability, T/C [15]: 92.3% | viability, T/C [16]: 89% | viability, T/C [17]: 76.3% | viability, T/C [18]: 36.4% | viability, T/C [19]: 99.4% | viability, T/C [20]: 96% | viability, T/C [21]: 98.8% | viability, T/C [22]: 96.8% | viability, T/C [23]: 67.6% | viability, T/C [24]: 39.4% | viability, T/C [25]: 109% | viability, T/C [26]: 92.9% | viability, T/C [27]: 106% | viability, T/C [28]: 98.4% | viability, T/C [29]: 73.7% | viability, T/C [30]: 48.1% | viability, T/C [31]: 91.8% | viability, T/C [32]: 95% | viability, T/C [33]: 94.1% | viability, T/C [34]: 87.7% | viability, T/C [35]: 70% | viability, T/C [36]: 32.6% | viability, T/C [37]: 89.9% | viability, T/C [38]: 90.9% | viability, T/C [39]: 86.3% | viability, T/C [40]: 70.5% | viability, T/C [41]: 59.6% | viability, T/C [42]: 22.8%

CCN1CCN(Cc2ccc(Nc3ncc(F)c(-c4cc(F)c5nc(C)n(C(C)C)c5c4)n3)nc2)CC1 + CC(Nc1ccc2c(c1)OCCn1cc(N3C(=O)OCC3C(F)F)nc1-2)C(N)=O
IC50 [43]: > 1 µM | IC50 [44]: > 1 µM | IC50 [1]: > 1 µM | IC50 [2]: > 1 µM | IC50 [3]: > 1 µM | IC50 [4]: > 1 µM | viability, T/C [45]: 93.8% | viability, T/C [46]: 100% | viability, T/C [47]: 96.3% | viability, T/C [48]: 98.7% | viability, T/C (second compound 0.00316 µM, first compound 0.316 µM): 131% | viability, T/C (second compound 0.00316 µM, first compound 1 µM): 111% | viability, T/C [49]: 94.9% | viability, T/C [50]: 102% | viability, T/C [51]: 98.5% | viability, T/C [52]: 102% | viability, T/C (second compound 0.01 µM, first compound 0.316 µM): 113% | viability, T/C (second compound 0.01 µM, first compound 1 µM): 102% | viability, T/C [53]: 103% | viability, T/C [54]: 111% | viability, T/C [7]: 99.8% | viability, T/C [8]: 107% | viability, T/C [9]: 112% | viability, T/C [10]: 96.6% | viability, T/C [55]: 104% | viability, T/C [56]: 94.3% | viability, T/C [13]: 99.3% | viability, T/C [14]: 108% | viability, T/C [15]: 107% | viability, T/C [16]: 74.5% | viability, T/C [57]: 102% | viability, T/C [58]: 110% | viability, T/C [19]: 105% | viability, T/C [20]: 97.8% | viability, T/C [21]: 96.1% | viability, T/C [22]: 57.6% | viability, T/C [59]: 113% | viability, T/C [60]: 90.9% | viability, T/C [25]: 84.6% | viability, T/C [26]: 85.5% | viability, T/C [27]: 73.7% | viability, T/C [28]: 49.6%

Cn1ncnc1[C@H]1c2n[nH]c(=O)c3cc(F)cc(c23)N[C@@H]1c1ccc(F)cc1 + COc1c(OCCCN2CCOCC2)ccc2c3n(c(=NC(=O)c4cnc(N)nc4)nc12)CCN3
IC50 [43]: > 0.1 µM | IC50 [44]: > 0.1 µM | IC50 [1]: > 0.1 µM | IC50 [2]: > 0.1 µM | IC50 [3]: < 0.000316 µM | IC50 [4]: < 0.000316 µM | viability, T/C (second compound 0.00316 µM, first compound 0.000316 µM): 99.2% | viability, T/C (second compound 0.00316 µM, first compound 0.001 µM): 101% | viability, T/C [45]: 107% | viability, T/C [46]: 95.2% | viability, T/C [47]: 92.5% | viability, T/C [48]: 94.1% | viability, T/C (second compound 0.01 µM, first compound 0.000316 µM): 93.8% | viability, T/C (second compound 0.01 µM, first compound 0.001 µM): 95.7% | viability, T/C [49]: 97.9% | viability, T/C [50]: 97.7% | viability, T/C [51]: 96.9% | viability, T/C [52]: 102% | viability, T/C (second compound 0.0316 µM, first compound 0.000316 µM): 96.9% | viability, T/C (second compound 0.0316 µM, first compound 0.001 µM): 99.3% | viability, T/C [53]: 113% | viability, T/C [54]: 98% | viability, T/C [7]: 97% | viability, T/C [8]: 95.7% | viability, T/C (second compound 0.1 µM, first compound 0.000316 µM): 111% | viability, T/C (second compound 0.1 µM, first compound 0.001 µM): 93.6% | viability, T/C [55]: 88.5% | viability, T/C [56]: 81% | viability, T/C [13]: 89.4% | viability, T/C [14]: 63.7% | viability, T/C (second compound 0.316 µM, first compound 0.000316 µM): 45.1% | viability, T/C (second compound 0.316 µM, first compound 0.001 µM): 41% | viability, T/C [57]: 31.9% | viability, T/C [58]: 36.2% | viability, T/C [19]: 37% | viability, T/C [20]: 29.8% | viability, T/C (second compound 1 µM, first compound 0.000316 µM): 29.8% | viability, T/C (second compound 1 µM, first compound 0.001 µM): 24.9% | viability, T/C [59]: 23.1% | viability, T/C [60]: 19.5% | viability, T/C [25]: 19.4% | viability, T/C [26]: 22.3%

CC(Cn1ccc(-c2ccc(C#N)c(Cl)c2)n1)NC(=O)c1cc(C(C)O)[nH]n1 (stereo not given) + Cc1nc(NC(=O)N2CCCC2C(N)=O)sc1-c1ccnc(C(C)(C)C(F)(F)F)c1
IC50 [1]: > 10 µM | IC50 [2]: > 10 µM | IC50 [3]: > 10 µM | IC50 [4]: > 10 µM | IC50 [5]: > 10 µM | IC50 [6]: > 10 µM | viability, T/C [7]: 105% | viability, T/C [8]: 101% | viability, T/C [9]: 114% | viability, T/C [10]: 97.5% | viability, T/C [11]: 102% | viability, T/C [12]: 103% | viability, T/C [13]: 94.3% | viability, T/C [14]: 89.8% | viability, T/C [15]: 98.1% | viability, T/C [16]: 95.7% | viability, T/C [17]: 101% | viability, T/C [18]: 97.4% | viability, T/C [19]: 98.6% | viability, T/C [20]: 104% | viability, T/C [21]: 104% | viability, T/C [22]: 99.7% | viability, T/C [23]: 108% | viability, T/C [24]: 95.5% | viability, T/C [25]: 111% | viability, T/C [26]: 102% | viability, T/C [27]: 95.4% | viability, T/C [28]: 102% | viability, T/C [29]: 100% | viability, T/C [30]: 98.5% | viability, T/C [31]: 101% | viability, T/C [32]: 99.5% | viability, T/C [33]: 96.7% | viability, T/C [34]: 103% | viability, T/C [35]: 96.1% | viability, T/C [36]: 108% | viability, T/C [37]: 105% | viability, T/C [38]: 100% | viability, T/C [39]: 90.8% | viability, T/C [40]: 99.3% | viability, T/C [41]: 95.9% | viability, T/C [42]: 84.1%

COc1c(OCCCN2CCOCC2)ccc2c3n(c(=NC(=O)c4cnc(N)nc4)nc12)CCN3
viability, T/C (compound 0.00316 µM): 93.2% [middle of 8 runs] | viability, T/C (compound 0.01 µM): 96.5% [middle of 8 runs] | viability, T/C (compound 0.0316 µM): 96.2% [middle of 8 runs] | viability, T/C (compound 0.1 µM): 91.2% [middle of 8 runs] | viability, T/C (compound 0.316 µM): 45% [middle of 8 runs] | viability, T/C (compound 1 µM): 26.3% [middle of 8 runs] | IC50 (compound alone, run of 05/09/2023): 279 nM [middle of 7 runs]
